Experiment: Example 1: weekly body weight and daily feed intake
Type: in vivo, Male Golden Syrian hamsters
Details: Example 1, weekly body weight over 4 weeks, FIG. 5
Procedure: Male Golden Syrian Hamsters were purchased from Charles River Co. housed individually in cages for two weeks prior to the commencement of the study. During this adjustment period, animals were fed with regular rodent chow diet with free access to both food and water. A total of 60 hamsters were weighed and randomly assigned to one of four groups of 15 animals each. Animals are subjected to a temperature-controlled environment with a 12:12 h light/dark cycle. Each group was fed with one of the four isocaloric experimental diets for a 4 week period. […] During the course of the experiment, animals were weighed weekly and food consumption was determined on a daily basis over the course of the experiment. During the course of the experiment, data were obtained with regard to food consumption and bodyweight so that the dose of BBRCI was maintained on a mg/kg basis as the animals grew over the 4 weeks experimental period. […] This may have important implications on weight control, healthy weight management strategies, and body composition (increase lean body mass) in humans and animals. […] Thereafter, significant differences in food intake was observed from days 22-25 but this effect disappeared during days 25-28 as a small surgical intervention was performed on each animal on day 25 on the neck area of the animal, which reduced food consumption in each treatment. […]

Compound: COc1ccc2cc3[n+](cc2c1OC)CCc1cc2c(cc1-3)OCO2 [BBRCI, Berberine chloride]
- body weight: trend toward reduced body weights after two weeks

From patent publication US8895079B2, “Combinations of botanical extracts for promoting cardiovascular health” (National Research Council of Canada, priority 2005, dated 2014)
